Reference: patent US20230019236A1, “PROTEIN TYROSINE PHOSPHATASE INHIBITORS AND METHODS OF USE THEREOF” (Calico Life Sciences LLC, priority 2019, published 2023)

Target: T1, His tagged full-length PTP1B protein (Homo sapiens, UniProt P18031)
T1 construct: made in house
T1 sequence (P18031 with tags, fused parts or gaps): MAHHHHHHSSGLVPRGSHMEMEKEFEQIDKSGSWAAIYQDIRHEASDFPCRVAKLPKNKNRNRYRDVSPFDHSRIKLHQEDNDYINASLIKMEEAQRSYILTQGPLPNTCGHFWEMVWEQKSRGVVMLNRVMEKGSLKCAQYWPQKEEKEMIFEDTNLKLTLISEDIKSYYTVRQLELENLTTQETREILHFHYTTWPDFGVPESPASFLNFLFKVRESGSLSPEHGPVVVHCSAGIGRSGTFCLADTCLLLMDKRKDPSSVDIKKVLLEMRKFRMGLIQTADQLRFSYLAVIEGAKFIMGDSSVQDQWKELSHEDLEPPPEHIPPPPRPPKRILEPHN
Test: Mobility Shift Assay (MSA) used to determine potency of PTP1B inhibitors
Format: biochemical
Conditions: Table 2
Description: The enzymatic assay used to determine activity is a mobility shift assay using a LabChip EZ Reader by Caliper Life Sciences. The enzymatic reaction was carried out in assay buffer (50 mM HEPES pH 7.5, 1 mM EGTA, 10 mM EDTA, 0.01% Tween® 20, and 2 mM DTT). […] The enzyme (at 0.5 nM) was incubated with compound for 10 minutes at room temperature. […] The % inhibition was then used to calculate the IC50 values.

Structure (SMILES) | IC50 [nM]
O=C1CN(c2c(O)cc3ccc(OCCN4CCOCC4)cc3c2F)S(=O)(=O)N1 [Compound 100, 5-{1-fluoro-3-hydroxy-7-[2-(morpholin-4-yl)ethoxy]naphthalen-2-yl}-1λ^6,2,5-thiadiazolidine-1,1,3-trione] | 10 to 100
O=C1CN(c2c(O)cc3ccc4occc4c3c2F)S(=O)(=O)N1 [Compound 104, 5-(9-fluoro-7-hydroxynaphtho[2,1-b]furan-8-yl)-1λ^6,2,5-thiadiazolidine-1,1,3-trione] | 10 to 100
O=C1CN(c2c(O)cc3ccc(OCCN4CCC4)cc3c2F)S(=O)(=O)N1 [Compound 105, 5-{7-[2-(azetidin-1-yl)ethoxy]-1-fluoro-3-hydroxynaphthalen-2-yl}-1λ^6,2,5-thiadiazolidine-1,1,3-trione] | 1 to 10
[2H]c1c(O)c(N2C([2H])([2H])C(=O)NS2(=O)=O)c(F)c2cc(OC)ccc12 [Compound 106, 5-[1-fluoro-3-hydroxy-7-methoxy(4-^2H)naphthalen-2-yl](4,4-2H2)-1λ^6,2,5-thiadiazolidine-1,1,3-trione] | 1 to 10
CNc1ccc2cc(O)c(N3CC(=O)NS3(=O)=O)c(F)c2c1 [Compound 107, 5-[1-fluoro-3-hydroxy-7-(methylamino)naphthalen-2-yl]-1λ^6,2,5-thiadiazolidine-1,1,3-trione] | > 100
N#CCCCCOc1ccc2cc(O)c(N3CC(=O)NS3(=O)=O)c(F)c2c1 [Compound 111, 5-{[8-fluoro-6-hydroxy-7-(1,1,4-trioxo-1λ^6,2,5-thiadiazolidin-2-yl)naphthalen-2-yl]oxy}pentanenitrile] | 1 to 10
O=C1CN(c2c(O)cc3ccc(OCCN4CCCCC4)cc3c2F)S(=O)(=O)N1 [Compound 112, 5-{1-fluoro-3-hydroxy-7-[2-(piperidin-1-yl)ethoxy]naphthalen-2-yl}-1λ^6,2,5-thiadiazolidine-1,1,3-trione] | 10 to 100
O=C1CN(c2c(O)cc3ccc(OCC4CCNCC4)cc3c2F)S(=O)(=O)N1 [Compound 114, 5-{1-fluoro-3-hydroxy-7-[(piperidin-4-yl)methoxy]naphthalen-2-yl}-1λ^6,2,5-thiadiazolidine-1,1,3-trione] | 1 to 10
CC(C)(CC#N)CCOc1ccc2cc(O)c(N3CC(=O)NS3(=O)=O)c(F)c2c1 [Compound 115, 5-{[8-fluoro-6-hydroxy-7-(1,1,4-trioxo-1λ^6,2,5-thiadiazolidin-2-yl)naphthalen-2-yl]oxy}-3,3-dimethylpentanenitrile] | 1 to 10
CC(C)(C)CCNc1ccc2cc(O)c(N3CC(=O)NS3(=O)=O)c(F)c2c1 [Compound 116, 5-{7-[(3,3-dimethylbutyl)amino]-1-fluoro-3-hydroxynaphthalen-2-yl}-1λ^6,2,5-thiadiazolidine-1,1,3-trione] | 10 to 100
COc1ccc2c(F)c(O)c(N3CC(=O)NS3(=O)=O)c(F)c2c1 [Compound 117, 5-(1,4-difluoro-3-hydroxy-7-methoxynaphthalen-2-yl)-1λ^6,2,5-thiadiazolidine-1,1,3-trione] | 1 to 10
[2H]C([2H])([2H])Oc1ccc2cc(O)c(N3CC(=O)NS3(=O)=O)c(F)c2c1 [Compound 118, 5-{1-fluoro-3-hydroxy-7-[(2H3)methyloxy]naphthalen-2-yl}-1λ^6,2,5-thiadiazolidine-1,1,3-trione] | 1 to 10
COCCOc1ccc2cc(O)c(N3CC(=O)NS3(=O)=O)c(F)c2c1 [Compound 119, 5-[1-fluoro-3-hydroxy-7-(2-methoxyethoxy)naphthalen-2-yl]-1λ^6,2,5-thiadiazolidine-1,1,3-trione] | 1 to 10
CC(C)(C#N)CCOc1ccc2cc(O)c(N3CC(=O)NS3(=O)=O)c(F)c2c1 [Compound 120, 4-{[8-fluoro-6-hydroxy-7-(1,1,4-trioxo-1λ^6,2,5-thiadiazolidin-2-yl)naphthalen-2-yl]oxy}-2,2-dimethylbutanenitrile] | < 1
[2H]C1([2H])C(=O)NS(=O)(=O)N1c1c(O)cc2ccc(OC)cc2c1F [Compound 123, 5-(1-fluoro-3-hydroxy-7-methoxynaphthalen-2-yl)(4,4-^2H2)-1λ^6,2,5-thiadiazolidine-1,1,3-trione] | 1 to 10
O=C1CN(c2c(O)cc3ccc(NCCNS(=O)(=O)C4CC4)cc3c2F)S(=O)(=O)N1 [Compound 125, N-(2-{[8-fluoro-6-hydroxy-7-(1,1,4-trioxo-1λ^6,2,5-thiadiazolidin-2-yl)naphthalen-2-yl]amino}ethyl)cyclopropanesulfonamide] | 10 to 100
CS(=O)(=O)N1CC(Nc2ccc3cc(O)c(N4CC(=O)NS4(=O)=O)c(F)c3c2)C1 [Compound 128, 5-(1-fluoro-3-hydroxy-7-{[1-(methanesulfonyl)azetidin-3-yl]amino}naphthalen-2-yl)-1λ^6,2,5-thiadiazolidine-1,1,3-trione] | 1 to 10

Structure (SMILES) | IC50 [nM]
N#CCCCOc1ccc2cc(O)c(N3CC(=O)NS3(=O)=O)c(F)c2c1 [Compound 129, 4-{[8-fluoro-6-hydroxy-7-(1,1,4-trioxo-1λ^6,2,5-thiadiazolidin-2-yl)naphthalen-2-yl]oxy}butanenitrile] | < 1
O=C1CN(c2c(O)cc3ccc(-c4cnn(CC5CC5)c4)cc3c2F)S(=O)(=O)N1 [Compound 132, 5-{7-[1-(cyclopropylmethyl)-1H-pyrazol-4-yl]-1-fluoro-3-hydroxynaphthalen-2-yl}-1λ^6,2,5-thiadiazolidine-1,1,3-trione] | < 1
O=C1CN(c2c(O)cc3ccc(OCc4cn[nH]c4)cc3c2F)S(=O)(=O)N1 [Compound 133, 5-{1-fluoro-3-hydroxy-7-[(1H-pyrazol-4-yl)methoxy]naphthalen-2-yl}-1λ6,2,5-thiadiazolidine-1,1,3-trione] | 1 to 10
O=C1CN(c2c(O)cc3ccc(C(=O)NCC4CC4)cc3c2F)S(=O)(=O)N1 [Compound 136, N-(cyclopropylmethyl)-8-fluoro-6-hydroxy-7-(1,1,4-trioxo-1λ^6,2,5-thiadiazolidin-2-yl)naphthalene-2-carboxamide] | 10 to 100
O=C1CN(c2c(O)cc3ccc(OCCNCCOC(F)(F)F)cc3c2F)S(=O)(=O)N1 [Compound 137, 5-[1-fluoro-3-hydroxy-7-(2-{[2-(trifluoromethoxy)ethyl]amino}ethoxy)naphthalen-2-yl]-1λ^6,2,5-thiadiazolidine-1,1,3-trione] | 1 to 10
COCCNCCOc1ccc2cc(O)c(N3CC(=O)NS3(=O)=O)c(F)c2c1 [Compound 138, 5-(1-fluoro-3-hydroxy-7-{2-[(2-methoxyethyl)amino]ethoxy}naphthalen-2-yl)-1λ^6,2,5-thiadiazolidine-1,1,3-trione] | 10 to 100
CNCCCc1ccc2cc(O)c(N3CC(=O)NS3(=O)=O)c(F)c2c1 [Compound 139, 5-{1-fluoro-3-hydroxy-7-[3-(methylamino)propyl]naphthalen-2-yl}-1λ^6,2,5-thiadiazolidine-1,1,3-trione] | 10 to 100
CCNCCCc1ccc2cc(O)c(N3CC(=O)NS3(=O)=O)c(F)c2c1 [Compound 140, 5-{7-[3-(ethylamino)propyl]-1-fluoro-3-hydroxynaphthalen-2-yl}-1λ^6,2,5-thiadiazolidine-1,1,3-trione] | 10 to 100
CP(C)(=O)c1ccc(-c2ccc3cc(O)c(N4CC(=O)NS4(=O)=O)c(F)c3c2)s1 [Compound 141, 5-{7-[5-(dimethylphosphoryl)thiophen-2-yl]-1-fluoro-3-hydroxynaphthalen-2-yl}-1λ^6,2,5-thiadiazolidine-1,1,3-trione] | 1 to 10
O=C1CN(c2c(O)cc3ccc(OCCNC4CC4)cc3c2F)S(=O)(=O)N1 [Compound 142, 5-{7-[2-(cyclopropylamino)ethoxy]-1-fluoro-3-hydroxynaphthalen-2-yl}-1λ^6,2,5-thiadiazolidine-1,1,3-trione] | 10 to 100
CNCCOc1ccc2cc(O)c(N3CC(=O)NS3(=O)=O)c(F)c2c1 [Compound 143, 5-{1-fluoro-3-hydroxy-7-[2-(methylamino)ethoxy]naphthalen-2-yl}-1λ^6,2,5-thiadiazolidine-1,1,3-trione] | 10 to 100
CCNCCOc1ccc2cc(O)c(N3CC(=O)NS3(=O)=O)c(F)c2c1 [Compound 144, 5-{7-[2-(ethylamino)ethoxy]-1-fluoro-3-hydroxynaphthalen-2-yl}-1λ^6,2,5-thiadiazolidine-1,1,3-trione] | 10 to 100
CC(C)NCCOc1ccc2cc(O)c(N3CC(=O)NS3(=O)=O)c(F)c2c1 [Compound 145, 5-(1-fluoro-3-hydroxy-7-{2-[(propan-2-yl)amino]ethoxy}naphthalen-2-yl)-1λ^6,2,5-thiadiazolidine-1,1,3-trione] | 10 to 100
CCP(=O)(CC)CCCOc1ccc2cc(O)c(N3CC(=O)NS3(=O)=O)c(F)c2c1 [Compound 146, 5-{7-[3-(diethylphosphoryl)propoxy]-1-fluoro-3-hydroxynaphthalen-2-yl}-1λ^6,2,5-thiadiazolidine-1,1,3-trione] | 1 to 10
C[C@H](O)CCOc1ccc2cc(O)c(N3CC(=O)NS3(=O)=O)c(F)c2c1 [Compound 147, 5-{1-fluoro-3-hydroxy-7-[(3S)-3-hydroxybutoxy]naphthalen-2-yl}-1λ^6,2,5-thiadiazolidine-1,1,3-trione] | 1 to 10
CC(C)CCNc1ccc2c(F)c(O)c(N3CC(=O)NS3(=O)=O)c(F)c2c1 [Compound 148, 5-{1,4-difluoro-3-hydroxy-7-[(3-methylbutyl)amino]naphthalen-2-yl}-1λ^6,2,5-thiadiazolidine-1,1,3-trione] | > 100
